Columns and labels:
[1] = biological target: T1, PRMT5 (Homo sapiens, UniProt O14744); assay: PRMT5 Enzymatic Inhibition Assay (chemiluminescence immunoassay of histone H4 methylation); format: biochemical; conditions: 1 hour at room temperature; 10 μM to 1 nM
T1 construct: purchased BPS Biosciences 52002L
Method: A chemiluminescence immunoassay (CLIA) measuring the amount of PRMT5-mediated histone methylation was performed in a 96-well plate format according to the manufacturer's protocol (BPS Biosciences, Cat #52002L). A 96-well plate precoated with histone H4 peptide was rehydrated prior to use. A master mix containing PRMT5 substrate S-adenosylmethionine, reaction buffer, and purified PRMT5 enzyme was added to create reaction-competent wells. Wells lacking either S-adenosylmethionine substrate or PRMT5 enzyme were created as negative controls. 10 test concentrations, ranging from 100 μM to 10 nM, of the test compound were prepared using a 1:3 serial dilution in dH2O. 5 μL of each test concentration was added into a reaction-competent well. 5 μL of a 1% DMSO aqueous solution lacking inhibitor was added into negative control wells and into a reaction-competent well, creating a positive control well. The final reaction volume in each well was 50 μL, and the final concentration of the test compound in each well ranged from 10 μM to 1 nM. A known inhibitor of PRMT5, EPZ015666, was tested in parallel reaction wells as an assay validation control. The 96-well plate was incubated for 1 hour at room temperature.
Upon completion of the incubation, the reaction supernatant in each well was discarded. Wells were washed with 1×TBST and incubated in blocking buffer for 1 hour. The wells were incubated with a primary antibody recognizing methylated Arg3 residues on Histone H4 for 1 hour. The wells were washed with 1×TBST again and subsequently incubated with an HRP-conjugated secondary antibody for 30 minutes. The wells were washed again with 1×TBST, and equal parts of the chemiluminescence reagents were added into each well. Quantification of luminescence was measured in a plate reader.
Luminescence values were normalized against the positive and negative controls to convert the data into % PRMT5 activity. An inhibitor concentration-dependent curve was plotted against % PRMT5 activity and am IC50 value was determined for each compound.

[2] = test system: drug-resistant cell lines of Table 4; assay: Cell Line Growth Retardation Assay, average maximum effect in resistant cohort; format: cell-based, Human; conditions: average maximum growth inhibition over resistant cohort of Table 4; 6 days; up to 1 μM
Method: (§1) Cells were seeded at densities of 1,000-5,000 cells per well in 48-well tissue culture plates. After a 24 h rest period, cells were treated with compound at 1 μM, 0.2 μM, 0.04 μM, 0.008 μM, 0.0016 μM, and 0.00032 μM. A group of cells were treated with the vehicle in which the compound was prepared and served as a control. Prior to treatment, cells were counted and this count was used as a baseline for the calculation of growth inhibition. The cells were grown in the presence of compounds for 6 days and were counted on day 6. All cell counting was performed using a Synentec Cellavista plate imager. Growth inhibition was calculated as a ratio of cell population doublings in the presence of compound versus the absence of compound and expressed as the maximum percentage growth inhibition achieved across the range of tested concentrations of the compound (“maximum effect” or “ME”) calculated by fitting curves to data points from each dose-response assay using the Proc NLIN function in SAS for Windows version 9.2 (SAS Institute, Inc.).
(§2) Human cancer cell lines were grouped as “sensitive” or “resistant” to PRMT5 inhibition based on whether their growth was retarded by JNJ-64619178 (i.e., (1S,2R,3R,5R)-3-(2-(2-amino-3-bromoquinolin-7-yl)ethyl)-5-(4-amino-7H-pyrrolo[2,3-d]pyrimidin-7-yl)cyclopentane-1,2-diol) (data not shown; see Table 4). These sensitive and resistant cohorts were interrogated for response to each compound, and ME was calculated for each cell line using the same technique described above. Average MEs for the sensitive and resistant cohorts were calculated as arithmetic means of the group. “A” represents a percent of maximum effect of 60% or greater, “B” represents a percent of maximum effect of 30% to 59%, and “C” represents a percent of maximum effect of 29% or lower.

[3] = test system: drug-sensitive cell lines of Table 4; assay: Cell Line Growth Retardation Assay, average maximum effect in sensitive cohort; format: cell-based, Human; conditions: average maximum growth inhibition over sensitive cohort of Table 4; 6 days; up to 1 μM
Method: as §1, §2

[4] = Measurement of Compound Metabolic Stability in hepatocytes; format: in vitro ADME; conditions: mouse hepatocytes; for hepatocyte CLint at 1 μM: read-out: CLint (μL/min/10^6)
Method: The metabolic stability of compounds was determined in hepatocytes from human, mice and rats. Compounds were diluted to 5 μM in Williams' Medium E from 10 mM stock solutions. 10 μL of each compound was aliquoted into a well of a 96-well plate and reactions were started by aliquoting 40 μL of a 625,000 cells/mL suspension into each well. The plate was incubated at 37° C. with 5% CO2. At each corresponding time point, the reaction was stopped by quenching with ACN containing internal standards (IS) at a 1:3. Plates were shaken at 500 rpm for 10 min, and then centrifuged at 3,220×g for 20 minutes. Supernatants were transferred to another 96-well plate containing a dilution solution. Supernatants were analyzed by LC/MS/MS. The Half-lives (in minutes) and CLint values (in μL/min/10^6 cells) of example compounds, as measured in mouse hepatocytes, are presented in Table 3. […] For CLint, “A” represents greater than 100 μL/min/10^6 cells, “B” represents 50 to 100 μL/min/10^6 cells, and “C” represents less than 50 μL/min/10^6 cells.
The remaining percent of compound after incubation was calculated using the following equation: % Remaining Compound=Peak Area Ratios of Tested Compound vs. Internal Standard at End Point • Peak Area Ratios of Tested Compound vs. Internal Standard at Start Point Compound half-life and CLint were calculated using the following equations: Ct=C0*e^−k*t(first order kinetics); when […], t1/2=ln 2/k=0.693/k; and CLint=k/(1,000,000 cells/mL) Activity-Guided Selection of Inhibitors

T1 sequence (O14744 2-637 limits assumed): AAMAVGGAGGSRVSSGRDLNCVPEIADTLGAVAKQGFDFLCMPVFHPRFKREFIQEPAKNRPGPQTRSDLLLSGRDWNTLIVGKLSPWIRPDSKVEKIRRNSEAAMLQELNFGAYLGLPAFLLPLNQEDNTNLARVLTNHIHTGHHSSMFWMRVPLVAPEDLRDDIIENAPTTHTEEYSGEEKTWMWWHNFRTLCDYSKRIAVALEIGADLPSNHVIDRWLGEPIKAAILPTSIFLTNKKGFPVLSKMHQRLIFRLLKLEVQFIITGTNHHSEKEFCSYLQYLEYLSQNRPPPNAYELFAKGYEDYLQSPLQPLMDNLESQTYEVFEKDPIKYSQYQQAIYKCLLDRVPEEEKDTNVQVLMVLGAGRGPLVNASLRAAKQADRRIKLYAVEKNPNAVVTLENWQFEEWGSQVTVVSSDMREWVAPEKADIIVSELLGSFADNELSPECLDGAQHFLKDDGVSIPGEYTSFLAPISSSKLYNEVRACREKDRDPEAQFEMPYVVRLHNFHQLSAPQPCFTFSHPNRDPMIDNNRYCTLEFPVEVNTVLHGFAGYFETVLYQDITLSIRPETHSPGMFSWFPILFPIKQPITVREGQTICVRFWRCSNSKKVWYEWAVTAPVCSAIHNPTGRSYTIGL
T1 sequence (Q9BQA1 2-342 partner limits assumed): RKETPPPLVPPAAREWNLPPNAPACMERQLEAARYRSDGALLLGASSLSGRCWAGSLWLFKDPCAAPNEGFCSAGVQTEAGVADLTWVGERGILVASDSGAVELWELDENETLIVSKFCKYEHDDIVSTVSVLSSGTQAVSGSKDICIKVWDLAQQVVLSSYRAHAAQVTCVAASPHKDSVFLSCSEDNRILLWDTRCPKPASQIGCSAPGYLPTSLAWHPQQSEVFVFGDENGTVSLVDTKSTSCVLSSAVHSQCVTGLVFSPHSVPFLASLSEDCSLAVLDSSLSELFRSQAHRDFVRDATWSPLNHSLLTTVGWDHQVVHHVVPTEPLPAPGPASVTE

IC50 [1] [nM] | half-life at 1 μM [4] [min] | hepatocyte CLint at 1 μM [4] [µL/min/1e6 cells] | SMILES | AvgRes ME (%) [2] | AvgSens ME (%) [3]
≤ 100 | – | – | Nc1nc2cc(C3C[C@@]4(CO3)C[C@@H](n3ccc5c(Cl)ncnc53)[C@H](O)[C@@H]4O)ccc2cc1Br (stereo partly shown) [Compound 18] | C (a percent of maximum effect of 29% or lower) | C (a percent of maximum effect of 29% or lower)
≤ 100 | – | – | CC(C)Nc1ncnc2c1ccn2[C@@H]1C[C@@]2(CO[C@@H](c3ccc4cc(Br)c(N)nc4c3)C2)[C@@H](O)[C@H]1O [Compound 25] | C (a percent of maximum effect of 29% or lower) | B (a percent of maximum effect of 30% to 59%)
≤ 100 | < 15 | > 100 | Nc1ccc2ccc([C@H]3C[C@@]4(CO3)C[C@@H](n3ccc5cncnc53)[C@H](O)[C@@H]4O)cc2n1 [Compound 21] | B (a percent of maximum effect of 30% to 59%) | A (a percent of maximum effect of 60% or greater)
≤ 100 | < 15 | > 100 | Nc1ccc2ccc([C@H]3C[C@@]4(CO3)C[C@@H](n3ccc5c(Cl)ncnc53)[C@H](O)[C@@H]4O)cc2n1 [Compound 20] | B (a percent of maximum effect of 30% to 59%) | A (a percent of maximum effect of 60% or greater)
≤ 100 | – | – | CCCNc1ncnc2c1ccn2[C@@H]1C[C@@]2(CO[C@@H](c3ccc4cc(Br)c(N)nc4c3)C2)[C@@H](O)[C@H]1O [Compound 26] | B (a percent of maximum effect of 30% to 59%) | B (a percent of maximum effect of 30% to 59%)

Further lines, the compound ahead of its results:

SMILES | IC50 [1] [nM] | half-life at 1 μM [4] [min] | hepatocyte CLint at 1 μM [4] [µL/min/1e6 cells] | AvgRes ME (%) [2] | AvgSens ME (%) [3]
Nc1ncnc2c1ccn2[C@@H]1C[C@@]2(CNC(c3ccc4cc(Br)c(Cl)nc4c3)C2)[C@@H](O)[C@H]1O (single isomer, unassigned) [Compound 3] | > 500 | – | – | C (a percent of maximum effect of 29% or lower) | C (a percent of maximum effect of 29% or lower)
Nc1nc2cc(C3C[C@@]4(CO3)C[C@@H](n3ccc5c(N)ncnc53)[C@H](O)[C@@H]4O)ccc2cc1Br (single isomer, unassigned) [Compound 16] | ≤ 100 | – | – | B (a percent of maximum effect of 30% to 59%) | A (a percent of maximum effect of 60% or greater)
O[C@H]1[C@H](n2ccc3c(Cl)ncnc32)C[C@@]2(CNC(c3ccc4cc(Br)c(Cl)nc4c3)C2)[C@H]1O (single isomer, unassigned) [Compound 2] | > 500 | – | – | C (a percent of maximum effect of 29% or lower) | C (a percent of maximum effect of 29% or lower)
CN1C[C@]2(CC1c1ccc3cc(Br)c(N)nc3c1)C[C@@H](n1ccc3c(N)ncnc31)[C@H](O)[C@@H]2O (single isomer, unassigned) [Compound 6] | > 500 | – | – | C (a percent of maximum effect of 29% or lower) | C (a percent of maximum effect of 29% or lower)
Nc1nc2cc(C3C[C@@]4(CN3)C[C@@H](n3ccc5c(Cl)ncnc53)[C@H](O)[C@@H]4O)ccc2cc1Br (single isomer, unassigned) [Compound 10] | 101 to 500 | – | – | C (a percent of maximum effect of 29% or lower) | C (a percent of maximum effect of 29% or lower)
Nc1nc2cc(C3C[C@@]4(CN3)C[C@@H](n3ccc5c(N)ncnc53)[C@H](O)[C@@H]4O)ccc2cc1Br (single isomer, unassigned) [Compound 7] | ≤ 100 | – | – | B (a percent of maximum effect of 30% to 59%) | A (a percent of maximum effect of 60% or greater)
CN1C[C@]2(CC1c1ccc3cc(Br)c(N)nc3c1)C[C@@H](n1ccc3c(N)ncnc31)[C@H](O)[C@@H]2O (single isomer, unassigned) [Compound 5] | 101 to 500 | – | – | C (a percent of maximum effect of 29% or lower) | C (a percent of maximum effect of 29% or lower)
O[C@H]1[C@H](n2ccc3c(Cl)ncnc32)C[C@@]2(CNC(c3ccc4cc(Br)c(Cl)nc4c3)C2)[C@H]1O (single isomer, unassigned) [Compound 1] | > 500 | – | – | C (a percent of maximum effect of 29% or lower) | C (a percent of maximum effect of 29% or lower)
Nc1ncnc2c1ccn2[C@@H]1C[C@@]2(CNC(c3ccc4cc(Br)c(Cl)nc4c3)C2)[C@@H](O)[C@H]1O (single isomer, unassigned) [Compound 4] | 101 to 500 | – | – | C (a percent of maximum effect of 29% or lower) | C (a percent of maximum effect of 29% or lower)

From patent US12583859B2, “PRMT5 inhibitors and uses thereof” (California Institute of Technology, priority 2019, dated 2026)
